Test [1] relates to IL1RN mRNA in HEK293T cells. The test can be described thus: qPCR of IL1RN mRNA levels (dCas9-PYL-HA, FLAG-ABI-P300, sgRNAs). It is filed as cell-based, human. The procedure: To study how IL1RN expression levels change, total RNAs from the cell lysates generated in the above experiment were purified and then subjected to qPCR analysis to quantify mRNA levels.
Human embryonic kidney cell HEK293T (American Type Culture Collection, Manassas, Va.) was cultured in Dulbecco's modified Eagle's medium (DMEM) (Gibco) with 10% FBS (Atlanta Biologicals), 1× GlutaMax (Gibco, Thermo Fisher Scientific, Inc., Waltham, Mass.), and 1× penicillin/streptomycin (Pen/Strep; Gibco, Thermo Fisher Scientific, Inc., Waltham, Mass.). Cells (100,000/ml) were plated in 24-well or 10-cm cell culture plate the day before transfection. For each well of 24-well plate transfection, 500 ng of dCas9-PYL-HA, 420 ng of FLAG-ABI-P300, and a total amount of 200-ng mix of gRNAs, with a 50-ng per each gRNA, were mixed with 50×(v/w) Opti-MEM (Gibco, Thermo Fisher Scientific, Inc., Waltham, Mass.), then incubate with the same volume of 3 μg PEI-Opti-MEM solution for 20 minutes at room temperature. Then, 100 μL of PEI-combined plasmids were added to every single well of 24-well plate and cultured for 24 hours before experiments were performed. For a 10 cm plate, 1 mL of PEI-combined plasmids were needed. After six hours transfection, cells were washed and incubated for another 1-72 hours before experiments were performed.
Total RNA was extracted using the EZNA Total RNA Kit I (Omega Bio-tek, Inc., Norcross, Ga.). qPCR reactions were performed on cDNA prepared from 1,000 ng of total cellular RNA using the High-Capacity cDNA Reverse Transcription Kit (Applied Biosystems Co., Thermo Fisher Scientific, Inc., Foster City, Calif.). TaqMan qPCR probes (Thermo Fisher Scientific, Inc., Waltham, Mass. IL1RN, Hs00893626; GRM2, Hs00968358; HBA, Hs00361191; MYOD1 Hs02330075; GAPDH, Hs99999905) and Fast Advanced Master Mix (Life Technologies Co., Co., Thermo Fisher Scientific, Inc., Carlsbad, Calif.) were used in multiplexed reactions and 384-well format in a 7900HT Fast Real-Time PCR System (Applied Biosystems Co., Thermo Fisher Scientific, Inc., Foster City, Calif.). All measurements were performed at least in triplicate. Data were analyzed using the SDS software, version 2.4 (Applied Biosystems Co., Thermo Fisher Scientific, Inc., Foster City, Calif.), by the ΔΔCt method: the Ct values of target gene were normalized to Ct values of GAPDH, the folds of target gene expression changes were normalized to experimental controls. Analyzed data are reported as the mean±s.e.m. for biological replicates. In ChIP assays, the Ct values of antibodies pulled down segments were normalized to the Ct values of 10% input.
(In general: In qPCR the cycle at which signal appears reflects the starting amount.)

In test [2] the test system is six off-target genes (RHOC, IRF2BP2, TFAM, HSD3B7, METTL2A, CEP250) in HEK293T cells. Briefly: qPCR of mRNA levels of six off-target genes with IL1RN sgRNAs. It is filed as cell-based, human. To be noted: 100 μM ABA for 24 hours vs DMSO. The procedure: FIG. 11. Expression of six off-target genes when induced by ABA using sgRNAs designed for IL1RN. dCas9-PYL-HA, FLAG-ABI-P300 and IL1RN sgRNAs were transfected into HEK293T cells for 24 hours. Cells were then treated with 100 μM of ABA for another 24 hours followed by the analysis of mRNA levels of six off-target genes using q-PCR. The fold changes were calculated by comparing ABA treated cells to cells treated with DMSO. Error bars represent ±s.e.m. from biological replicates (n=6).
It is known that sgRNA/Cas9 can bind to unintended loci, which can lead to off-target effects. To examine if aberrant binding interferes with the interpretation of results, all reported sites in the genome that could potentially be targeted by the IL1RN sgRNAs used in the studies were checked. Changes in the mRNA levels of six genes having TSS close to the off-target sites were monitored (Table 3) after cells were co-transfected with IL1RN sgRNAs, dCas9-PYL-HA and FLAG-ABI-P300 plasmids followed by ABA treatment for 24 hours.
Total RNA was extracted using the EZNA Total RNA Kit I (Omega Bio-tek, Inc., Norcross, Ga.). qPCR reactions were performed on cDNA prepared from 1,000 ng of total cellular RNA using the High-Capacity cDNA Reverse Transcription Kit (Applied Biosystems Co., Thermo Fisher Scientific, Inc., Foster City, Calif.). […] Analyzed data are reported as the mean±s.e.m. for biological replicates. […]

Structures are written as SMILES.

The text below walks through data of US20190256827A1, “EPIGENOME EDITING SYSTEMS AND METHODS” (STC.UNM, priority 2017, published 2019).

Turning to `CC1=CC(=O)CC(C)(C)[C@@]1(O)/C=C/C(C)=C\C(=O)O` [ABA, abscisic acid], the “IL1RN mRNA levels after washing” value in test [1] (ABA for 12, 24 or 48 hours, then washed) is on record as “well correlated with the changes in H3K27Ac levels”. Also, the “IL1RN mRNA level with P300 mutant (D1399Y) lacking acetyltransferase activity” value in test [1] (FLAG-ABI-P300 D1399Y, 100 μM ABA for 24 hours) is listed as “did not increase”. In addition, the “IL1RN mRNA level” value in test [1] (cells transfected with ABI-P300, dCas9-PYL and IL1RN sgRNAs, treated with ABA (100 μM, 24 hours)) is reported as “IL1RN mRNA level increases”. Besides, the “IL1RN mRNA when sgRNAs designed for GRM2, HBA or MYOD1 were used” value in test [1] (sgRNAs for GRM2, HBA or MYOD1 in place of IL1RN, 24-hour ABA treatment) is recorded as “no increase in IL1RN mRNA was observed”. Besides, in test [1] (time course after ABA addition), the “time at which the IL1RN mRNA level increases” value is listed as “four hours after ABA addition” and the “time until which IL1RN mRNA continues to increase rapidly” value is recorded as “about 24 hours”. Also, in test [2], the “mRNA levels of six off-target genes” value is “None of the six genes display increases in mRNA levels”.
